Assays:
Assay type in all cases: in vivo
[1] = tested on: blackgrass (Alopecurus myosuroides); experiment: Test A greenhouse herbicide test, postemergence
Summary of the method: (§1)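 Scores are visual injury ratings from 0 (no effect) to 100 (complete control) versus untreated plants, taken roughly 10 d after treatment in the greenhouse. Treatment was postemergence, on one- to two-leaf plants 2–10 cm high growing in a loam soil/sand mix.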

[2] = tested on: galium (catchweed bedstraw, Galium aparine); experiment: Test A greenhouse herbicide test, postemergence
Summary of the method: as §1

[3] = tested on: barnyardgrass (Echinochloa crus-galli); experiment: Test C greenhouse herbicide test, pre- and postemergence
Summary of the method: (§2)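 Greenhouse pots; pre-em on seeded loam:sand blend, post-em on 2–18 cm plants (1–4 leaf) in sphagnum peat/vermiculite medium. Formulation: non-phytotoxic solvent + surfactant. Read-out: visual % control (0–100) vs controls at 13–15 d.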

[4] = tested on: blackgrass (Alopecurus myosuroides); experiment: as above
Summary of the method: as §2

[5] = tested on: galium (catchweed bedstraw, Galium aparine); experiment: as above
Summary of the method: as §2

[6] = tested on: nutsedge, yellow (yellow nutsedge, Cyperus esculentus); experiment: as above
Summary of the method: as §2

[7] = tested on: pigweed (Amaranthus retroflexus); experiment: as above
Summary of the method: as §2

[8] = tested on: ragweed (common ragweed, Ambrosia elatior); experiment: as above
Summary of the method: as §2

[9] = tested on: ryegrass, Italian (Italian ryegrass, Lolium multiflorum); experiment: as above
Summary of the method: as §2

[10] = tested on: soybean (Glycine max); experiment: as above
Summary of the method: as §2

[11] = tested on: velvetleaf (Abutilon theophrasti); experiment: as above
Summary of the method: as §2

[12] = tested on: chickweed (common chickweed, Stellaria media); experiment: Test C greenhouse herbicide test, postemergence
Summary of the method: (§3)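 Ratings are visual scores from 0 (no effect) to 100 (complete control), made against controls 13–15 d after treatment. Postemergence sprays were applied in the greenhouse to plants 2–18 cm tall (1- to 4-leaf stage) in peat-moss/vermiculite potting medium.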

[13] = tested on: kochia (Kochia scoparia); experiment: Test C greenhouse herbicide test, postemergence
Summary of the method: as §3

[14] = tested on: oat, wild (wild oat, Avena fatua); experiment: Test C greenhouse herbicide test, postemergence
Summary of the method: as §3

[15] = 125 g ai/ha, visual rating after approx. 10 d, 0 to 100 scale (0 no effect, 100 complete control)
[16] = 500 g ai/ha, 0 to 100 scale, 0 is no effect, 100 is complete control
[17] = Postemergence, 31 g ai/ha, 0 to 100 scale (0 no effect, 100 complete control)
[18] = Postemergence, 125 g ai/ha, scale 0 to 100, 0 is no effect, 100 is complete control
[19] = Postemergence, 250 g ai/ha, scale 0 to 100, 0 no effect, 100 complete control, 13 to 15 d
[20] = Preemergence, 31 g ai/ha, scale 0 to 100, 0 is no effect, 100 is complete control
[21] = Preemergence, 62 g ai/ha, scale 0 to 100, 0 is no effect, 100 is complete control
[22] = Preemergence, 125 g ai/ha, scale 0 to 100, 0 is no effect, 100 is complete control
[23] = Preemergence, 250 g ai/ha, scale 0 to 100, 0 no effect, 100 complete control
[24] = postemergence, 62 g ai/ha, scale 0 to 100, 0 no effect, 100 complete control

## Cn1nc(Br)c(O)c(-c2cccc3ccccc23)c1=O [Compound 20]
[1]; [15]
  Plant response rating, Blackgrass: 30
[1]; [16]
  Blackgrass plant response rating: 40
[2]; [15]
  Plant response rating, Galium: 90
[2]; [16]
  Galium plant response rating: 100
[3]; [17]
  Barnyardgrass plant response rating: 5
[3]; [18]
  Plant response rating, Barnyardgrass: 30
[3]; [19]
  Plant response rating, Barnyardgrass: 45
[3]; [20]
  Plant response rating, Barnyardgrass: 5
[3]; [21]
  Plant response rating, Barnyardgrass: 30
[3]; [22]
  Plant response rating, Barnyardgrass: 60
[3]; [23]
  Barnyardgrass plant response rating: 85
[3]; [24]
  Barnyardgrass plant response rating: 10
[4]; [17]
  Blackgrass plant response rating: 5
[4]; [18]
  Plant response rating, Blackgrass: 10
[4]; [19]
  Plant response rating, Blackgrass: 45
[4]; [20]
  Plant response rating, Blackgrass: 0
[4]; [21]
  Plant response rating, Blackgrass: 5
[4]; [22]
  Plant response rating, Blackgrass: 40
[4]; [23]
  Blackgrass plant response rating: 80
[4]; [24]
  Blackgrass plant response rating: 10
[5]; [17]
  Galium plant response rating: 98
[5]; [18]
  Plant response rating, Galium: 100
[5]; [19]
  Plant response rating, Galium: 100
[5]; [20]
  Plant response rating, Galium: 90
[5]; [21]
  Plant response rating, Galium: 100
[5]; [22]
  Plant response rating, Galium: 95
[5]; [23]
  Galium plant response rating: 95
[5]; [24]
  Galium plant response rating: 100
[6]; [17]
  Nutsedge, Yellow plant response rating: 45
[6]; [18]
  Plant response rating, Nutsedge, Yellow: 85
[6]; [19]
  Plant response rating, Nutsedge, Yellow: 95
[6]; [20]
  Plant response rating, Nutsedge, Yellow: 80
[6]; [21]
  Plant response rating, Nutsedge, Yellow: 85
[6]; [22]
  Plant response rating, Nutsedge, Yellow: 95
[6]; [23]
  Nutsedge, Yellow plant response rating: 95
[6]; [24]
  Nutsedge, Yellow plant response rating: 65
[7]; [17]
  Pigweed plant response rating: 75
[7]; [18]
  Plant response rating, Pigweed: 98
[7]; [19]
  Plant response rating, Pigweed: 100
[7]; [20]
  Plant response rating, Pigweed: 100
[7]; [21]
  Plant response rating, Pigweed: 100
[7]; [22]
  Plant response rating, Pigweed: 100
[7]; [23]
  Pigweed plant response rating: 100
[7]; [24]
  Pigweed plant response rating: 90
[8]; [17]
  Ragweed plant response rating: 80
[8]; [18]
  Plant response rating, Ragweed: 95
[8]; [19]
  Plant response rating, Ragweed: 100
[8]; [20]
  Plant response rating, Ragweed: 35
[8]; [21]
  Plant response rating, Ragweed: 45
[8]; [22]
  Plant response rating, Ragweed: 70
[8]; [23]
  Ragweed plant response rating: 75
[8]; [24]
  Ragweed plant response rating: 85
[9]; [17]
  Ryegrass, Italian plant response rating: 55
[9]; [18]
  Plant response rating, Ryegrass, Italian: 80
[9]; [19]
  Plant response rating, Ryegrass, Italian: 90
[9]; [20]
  Plant response rating, Ryegrass, Italian: 75
[9]; [21]
  Plant response rating, Ryegrass, Italian: 95
[9]; [22]
  Plant response rating, Ryegrass, Italian: 95
[9]; [23]
  Ryegrass, Italian plant response rating: 95
[9]; [24]
  Ryegrass, Italian plant response rating: 60
[10]; [17]
  Soybean plant response rating: 0
[10]; [18]
  Plant response rating, Soybean: 35
[10]; [19]
  Plant response rating, Soybean: 0
[10]; [21]
  Plant response rating, Soybean: 20
[10]; [22]
  Plant response rating, Soybean: 30
[10]; [23]
  Soybean plant response rating: 30
[10]; [24]
  Soybean plant response rating: 0
[11]; [17]
  Velvetleaf plant response rating: 25
[11]; [18]
  Plant response rating, Velvetleaf: 85
[11]; [19]
  Plant response rating, Velvetleaf: 100
[11]; [21]
  Plant response rating, Velvetleaf: 90
[11]; [22]
  Plant response rating, Velvetleaf: 100
[11]; [23]
  Velvetleaf plant response rating: 100
[11]; [24]
  Velvetleaf plant response rating: 25
[12]; [17]
  Chickweed plant response rating: 90
[12]; [18]
  Plant response rating, Chickweed: 100
[12]; [19]
  Plant response rating, Chickweed: 100
[12]; [24]
  Chickweed plant response rating: 98
[13]; [17]
  Kochia plant response rating: 50
[13]; [18]
  Plant response rating, Kochia: 90
[13]; [19]
  Plant response rating, Kochia: 100
[13]; [24]
  Kochia plant response rating: 80
[14]; [17]
  Oat, Wild plant response rating: 0
[14]; [18]
  Plant response rating, Oat, Wild: 25
[14]; [19]
  Plant response rating, Oat, Wild: 40
[14]; [24]
  Oat, Wild plant response rating: 5
